The test system of assay [1] is tomato spotted wilt virus (TSWV). Put plainly: Induced resistance of tobacco to infection of tomato spotted wilt virus. Format: in vivo, Nicotiana benthamiana. To be noted: for Viral protein content: tobacco leaves 3 d after inoculation, Western blot grayscale, relative. How it is done:
Obtain the tomato spotted wilt virus from Yunnan Province, China, store the initial virus source in a −80° C. refrigerator, activate the virus by inoculating it by friction inoculation on Nicotiana benthamiana leaves, extract viral plasmids, transform them by Escherichia coli competent cells, spread them onto a resistant plate for culture, pick a single colony for PCR screening, select positive colonies for sequencing and subsequent plasmid extraction, add the plasmids with normal sequencing to agrobacterium competent cells, transform the agrobacterium by the electric shock method, spread the transformed agrobacterium solution on the corresponding resistance screening plate, and culture it at 28° C.(±1) for 48 h. Pick a single agrobacterium colony on the transformation plate, place it in 5 mL of LB medium with the corresponding resistance and culture it at 28° C. and 180 rpm overnight. Centrifuge at 6,000 rpm for 2 min, collect the bacteria, suspend the bacteria with a treatment buffer (10 mM MgCl2, 10 mM MES, 10 μM Acetosyringone) until the OD600 of the suspension is 0.5, treat it at 28° C. in a dark place for 3 h and keep it for future use.
Take 2-amino-3-hydroxy-3-methylbutyric acid, dissolve it with distilled water, then dilute the solution with distilled water by gradient into 0 nM, 0.1 nM, 1 nM and 10 nM solutions. Sow Nicotiana benthamiana seeds in a small pot, and culture them at 24(±1)° C., 12 h/12 h illumination for 5 weeks. Select healthy tobacco plants (plants with 8-10 leaves are appropriate), spray 2-amino-3-hydroxy-3-methylbutyric acid solutions at the above concentrations on leaves and stems twice at an interval of 24 h. After 24 hours, suck an agrobacterium solution at a uniform concentration with a 1 mL syringe, press the injection port of the syringe directly on a small hole on the back of a tobacco leaf, and slowly push the bacterial solution into the hole so that the whole leaf is soaked. Culture the soaked tobacco at 24(±1)° C. 12 h/12 h illumination. Observe under a microscope after 3 d and make record; meanwhile, take a sample, analyze the grayscale of protein bands by using Western blot and Image J software, and determine the relative protein content of virus in leaves. Observe the morbidity of the tobacco leaves after 15 days, record the disease index with reference to GB/T 23222-2008 Grade and Investigation Method of Tobacco Diseases and Insect Pests. The formula is as follows: […]
Grading standard of tomato spotted wilt viruses (grading survey with plant as a unit): • Level 0: No disease in the whole plant; • Level 1: The shoot and leaf veins are clear or the leaves are slightly mottled, and the diseased plant is not dwarfed obviously; • Level 3: One third of the leaves are mottled, but the leaves are not deformed, or the plant is dwarfed to more than three quarters of the normal plant height; • Level 5: One third to a half of the leaves are mottled, or a minority of leaves are deformed, or the main veins turn black, or the plant is dwarfed to two thirds to three quarters of the normal plant height; • Level 7: A half to two thirds of the leaves are mottled, or deformed or a minority of major lateral veins are dead, or the plant is dwarfed to a half to two thirds of the normal plant height; • Level 9: The leaves of the whole plant are mottled, or seriously deformed or dead, or the diseased plant is dwarfed to […] of the normal plant height.
A general note: Immunoblotting shows a protein as a band on a membrane.

For a further assay, the system named is wheat powdery mildew. Put plainly: Induced resistance of wheat seedlings to powdery mildew (greenhouse pots). It is filed as in vivo, wheat (NAU0686). The note with it: for Relative immune effect: wheat powdery mildew; for Number of mycelia and conidium yield on wheat leaves: 10-10,000 nM, with the increase of concentration. As for the experimental part: Take 2-amino-3-hydroxy-3-methylbutyric acid, dissolve it in distilled water, then dilute the solution with distilled water by gradient into 10 nM, 100 nM, 1,000 nM and 10,000 nM solutions, and set a blank control. Accelerate germination of wheat (NAU0686) seeds, then sow them in sterilized soil bowls, and culture them in a greenhouse of 23 (±1)° C. and 12 h illumination. Spray the 2-amino-3-hydroxy-3-methylbutyric acid solutions at the above concentrations to the stems and leaves of wheat seedlings when the seedlings have grown to have one leaf and one shoot, at an interval of 24 h and twice in total, evenly sprinkle fresh powdery wheat spores on the wheat leaves after 24 h, 3 pots each treatment, 20 plants per pot. Investigate the morbidity level of the wheat in each treatment after 10 d, record the morbidity level according to the wheat powdery mildew grading standard in the Pesticide—Guidelines for the Field Efficacy Trials(I) and calculate the disease index and relative immune effect by the calculation method same as that for the disease index and relative immune effect of tomato spotted wilt. Wheatpowdery mildew grading standard (with leaf as a unit): • Level 1: The area of the disease spots accounts for less than 5% of the whole leaf area; • Level 3: The area of the disease spots accounts for6%-15% of the whole leaf area; • Level 5: The area of the disease spots accounts for 16%-25% of the whole leaf area; • Level 7: The area of the disease spots accounts for26%-50% of the whole leaf area; • Level 9: The area of the disease spots accounts for more than 50% of the whole leaf area.

Assay [2] deals with tea under low-temperature stress. Put plainly: Tea seedlings under low-temperature stress. Format: in vivo, tea (Baiye 1#). To be noted: for PIABS (photosynthetic performance index): tea seedlings after 24 h at −4° C.; for Cold damage index: tea seedlings, 24 h at −4° C., recovered 3 d; for Decrease of cold damage index / Increase of PIABS: 10,000 nM (so in the source), tea, low-temperature stress, vs 0 nM. How it is done: The tea trees for test are cutting seedling Baiye 1#. Select tea seedlings with consistent growth, move them into plastic bowls with a diameter of 18 cm, put them in a greenhouse of 25° C. and RH 60%-70%, adapt to growth for about one week, and carry out the test. […] The spray treatment method is the same as the Arabidopsis treatment method in Embodiment 6, the time of low-temperature stress is 24 h, and the temperature is set at −4° C. Take out tea seedlings after stress, conduct dark treatment at room temperature for 30 min, then determine the chlorophyll fluorescence of leaves at the top of tea seedlings by plant efficiency Handy-PEA, then put them in a 25° C. greenhouse and recover them for 3 d, observe and calculate the cold damage condition and grade it. The statistics and grading standard of the cold damage index is shown in Table 12, the calculation formula is as follows and the results are as shown in Table 13. [formula] [table]

Where [3] appears, read: 0.1 nM sprayed twice, tobacco 15 days after TSWV inoculation.
Where [4] appears, read: 1 nM sprayed twice, tobacco 15 days after TSWV inoculation.
Where [5] appears, read: concentration range 0.1-10 nM, tobacco, TSWV.

The results in this text go back to patent publication US20250169496A1, “USE OF 2-AMINO-3-HYDROXY-3-METHYLBUTYRIC ACID AND/OR 2-AMINO-3-(4-HYDROXYPHENYL) BUTYRIC ACID” (NANJING TIANNONG BIOTECHNOLOGY CO., LTD., priority 2021, published 2025).

As to `CC(c1ccc(O)cc1)C(N)C(=O)O` (stereo not drawn) [2-amino-3-(4-hydroxyphenyl) butyric acid], the Disease index is given as 36.62 ± 0.87 b in assay [1] (setting [3]), 29.83 ± 2.31 c in assay [1] (setting [4]) and “lower than 50” in assay [1] (setting [5]). Further, the Viral protein content worked out at 0.34 ± 0.004 b in assay [1] (0.1 nM) and 0.28 ± 0.012 c in assay [1] (1 nM). The Relative immune effect in assay [1] (0.1 nM, tobacco, TSWV) is listed as 52.54%; in assay [1] (1 nM, tobacco, TSWV), 61.34%; in assay [1] (10 nM, tobacco, TSWV) it was 67.24%; in assay [1] (setting [5]), “more than 50%”; in the assay on wheat powdery mildew (10 nM), 20.17%; with wheat powdery mildew (100 nM) it was 34.92%. In the assay with wheat powdery mildew (10,000 nM), the Relative immune effect worked out at 71.12%. Moreover, the “Number of mycelia and conidium yield on wheat leaves” value with wheat powdery mildew is “decreased significantly”. Also, the “PIABS (photosynthetic performance index)” value in assay [2] (1 nM) is listed as 28.10 ± 3.10cd; in assay [2] (10 nM), 31.94 ± 1.37bc; in assay [2] (100 nM) it was 34.67 ± 3.27ab; in assay [2] (1,000 nM) it was 38.56 ± 2.23a. Also, the Cold damage index in assay [2] (1 nM) turned out to be 60%; in assay [2] (10 nM), 55%; in assay [2] (100 nM), 35%; in assay [2] (1,000 nM) it was 30%. Besides, in assay [2], the “Decrease of cold damage index” value is 40%. Moreover, the “Increase of PIABS” value in assay [2] amounted to 90.8%.
As for `CC(C)(O)C(N)C(=O)O` (stereo not drawn) [2-amino-3-hydroxy-3-methylbutyric acid], the Disease index in assay [1] (setting [3]) is 58.64 ± 2.31 b; in assay [1] (setting [4]) it was 40.74 ± 3.02 c; in assay [1] (setting [5]), “lower than 60”; with wheat powdery mildew (concentration greater than or equal to 1,000 nM, susceptible wheat, powdery mildew) it was “lower than 50”. Also, the Viral protein content amounted to 0.41 ± 0.029 b in assay [1] (0.1 nM) and 0.30 ± 0.012 c in assay [1] (1 nM). In addition, the Relative immune effect in assay [1] (0.1 nM, tobacco, TSWV) was 34.48%; in assay [1] (1 nM, tobacco, TSWV), 54.48%; in assay [1] (10 nM, tobacco, TSWV), 67.59%; in assay [1] (setting [5]), “more than 30%”; in the assay with wheat powdery mildew (10 nM) it was 16.85%; in the assay with wheat powdery mildew (100 nM), 27.90%. Further, the Relative immune effect in the assay with wheat powdery mildew (1,000 nM) is listed as 47.24%; in the assay on wheat powdery mildew (10,000 nM), 65.68%. For the same molecule, the “Number of mycelia and conidium yield on wheat leaves” value in the assay with wheat powdery mildew is given as “decreased significantly”. For the same molecule, the “PIABS (photosynthetic performance index)” value in assay [2] (10 nM) is recorded as 28.35 ± 1.66c; in assay [2] (100 nM) it was 30.67 ± 2.07bc; in assay [2] (1,000 nM) it was 35.23 ± 1.96b; in assay [2] (10,000 nM) it was 40.16 ± 2.15a. The Cold damage index in assay [2] (10 nM) came out at 65%; in assay [2] (100 nM), 45%; in assay [2] (1,000 nM), 30%; in assay [2] (10,000 nM), 15%. The “Decrease of cold damage index” value in assay [2] is reported as 60%. Besides, the “Increase of PIABS” value in assay [2] is given as 73%.
